Measurements from US20260028374A1, “EPIDERMAL GROWTH FACTOR RECEPTOR INHIBITORS” (FILAMON LTD, priority 2023, published 2026).
Square brackets hold non-standard residues; d marks the D form. Peptide text beside a SMILES is read from it. 2Nal = N[C@@H](Cc1ccc2ccccc2c1)C(=O)O; d1Nal = N[C@H](Cc1cccc2ccccc12)C(=O)O

Experiments:
EGFR [1] = molecular target: T1, EGFR (Homo sapiens, UniProt P00533); assay: Western blot of EGFR in PC-3 cells; assay type: cell-based; conditions: PC-3, 100 μM, time course 3, 16, 24 and 48 hours
T1 sequence (P00533 25-1210): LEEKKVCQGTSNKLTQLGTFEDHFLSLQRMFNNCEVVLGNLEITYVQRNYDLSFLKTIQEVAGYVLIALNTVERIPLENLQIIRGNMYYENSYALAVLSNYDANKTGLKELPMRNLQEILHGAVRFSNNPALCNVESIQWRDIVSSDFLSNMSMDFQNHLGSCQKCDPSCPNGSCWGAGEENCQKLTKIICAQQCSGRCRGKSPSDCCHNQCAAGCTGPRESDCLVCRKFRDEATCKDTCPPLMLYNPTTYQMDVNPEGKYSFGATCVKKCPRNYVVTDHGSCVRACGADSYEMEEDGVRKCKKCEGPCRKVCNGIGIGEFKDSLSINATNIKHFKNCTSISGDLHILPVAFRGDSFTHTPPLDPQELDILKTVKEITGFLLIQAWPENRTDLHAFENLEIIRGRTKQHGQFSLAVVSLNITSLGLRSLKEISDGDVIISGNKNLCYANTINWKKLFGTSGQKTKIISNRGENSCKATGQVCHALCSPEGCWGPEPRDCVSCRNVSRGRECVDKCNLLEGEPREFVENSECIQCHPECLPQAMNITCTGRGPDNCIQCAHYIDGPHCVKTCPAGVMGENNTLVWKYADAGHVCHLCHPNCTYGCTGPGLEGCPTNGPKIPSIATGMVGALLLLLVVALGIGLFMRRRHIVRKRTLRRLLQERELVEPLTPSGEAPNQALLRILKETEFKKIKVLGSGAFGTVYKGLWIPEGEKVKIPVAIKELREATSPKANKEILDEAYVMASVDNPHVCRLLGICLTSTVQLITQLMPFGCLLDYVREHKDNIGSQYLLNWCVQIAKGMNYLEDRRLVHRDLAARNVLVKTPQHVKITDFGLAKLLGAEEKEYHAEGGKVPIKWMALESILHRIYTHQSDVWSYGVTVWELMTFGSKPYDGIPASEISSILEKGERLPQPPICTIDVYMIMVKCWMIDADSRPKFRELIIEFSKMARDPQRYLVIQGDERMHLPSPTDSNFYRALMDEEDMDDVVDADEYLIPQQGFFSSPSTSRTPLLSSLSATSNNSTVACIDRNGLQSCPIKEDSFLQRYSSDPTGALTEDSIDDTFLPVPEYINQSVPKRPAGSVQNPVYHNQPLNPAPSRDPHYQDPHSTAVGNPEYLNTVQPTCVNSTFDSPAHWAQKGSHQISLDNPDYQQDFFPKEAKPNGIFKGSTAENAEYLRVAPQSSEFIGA
Method: (§1) FIG. 3. (a) PC-3 cells treated with DMSO (0.5%), FLM-c2 (100 μM), D1-D3 (100 μM) or EGF (50 ng/mL) for 24 h, detected for EGFR and GAPDH. (b) PC-3 cells tagged with EGFR-EGFP and lysotracker treated with DMSO (0.5%) or D3 (100 μM) for 24 h.
FIG. 4. (a) PC-3 cells were treated with D1-D3 (100 μM) for 3, 16, 24 and 48 hours. EGFR and ß-Actin ratio was detected. (b) the EGFR:ß-Actin ratio was plotted after normalising to DMSO control.
PC-3 cells were seeded in a 6 well plate at 200,000 cells/well overnight at 37° C. and 5% C02. Media was removed, cells were washed with PBS and serum free media added 1 hour before treatment with FLM-c2, D1-D3 for 3-48 hours. After treatment, media was removed and cells were washed with ice cold PBS. PBS was removed and cells were scraped into 1 mL of PBS containing 5.3 mM of EDTA and centrifuged at 2500 g for 2 min. PBS was removed and cells were lysed with lysis buffer (PBS, 0.1% NP-40, 0.1% sodium deoxycholate, 150 mM NaCl, 1 mM EDTA, 1 mM dithiothreitol, 1 mM phenylmethylsulfonyl fluoride, and IX protease inhibitor cocktail)^17 and mixed with RM-2L Intelli-mixer for 30 min at 4° C. Lysates were then centrifuged at 12,000 g for 20 min at 4° C. 20 μg of lysate was added to 4 μL of Bolt reducing agent and 10 μL of reducing buffer (both reagents supplied by Thermo Fisher Scientific) for a final volume of 40 μL with PBS. Samples were boiled and run on a gel, transferred to a membrane and blocked for 1 hour in 5% skim milk at 25° C. Membrane was probed with either EGFR antibody #2232, GAPDH antibody #2118 or BS-Actin antibody #4970 (Cell Signalling) at 1:1000 in 5% skim milk/TBST overnight at 4° C. Each membrane was washed three times with 50 mL TBST for 5 mins and then incubated with the relevant secondary α-rabbit IgG-HRP-linked antibody (1:1000), for 1 hour at room temperature. The membrane was washed as described above and imaged with the Licor Odyssey.

EGFR [2] = molecular target: T1, EGFR; assay: EGFR and lysotracker staining in A549 cells; assay type: cell-based; parameters: endogenous in cells; host or cells: A549; conditions: A549, 16 hours
Method: FIG. 5: (a) A549 cells were treated with DMSO (0.5%), EGF (50 ng/mL), or D1-D3 (1-100 μM) for 16 hours, before staining with lysotracker (red), fixing and staining with EGFR antibody (green). (b) EGFR signal, (c) EGFR membrane signal, (d) lysotracker signal and (e) EGFR speckle lysotracker signal (bars SEM) were quantified (n=3, >20 cells per replicate). Scale bars 20 μm.
To investigate the mechanism of how LYTAPS cause EGFR degradation, LYTAPs D1-D3 (1-100 μM) were incubated on A549 cells for 16 hours, with DMSO (0.5%) and high EGF (50 ng/mL) used as controls. Cells were then stained with Lysotracker, fixed and stained with EGFR-antibody. Under DMSO control, the majority of EGFR signal is present at the membrane (FIG. 5a).

EGF-EGFR interaction = molecular target: T2, EGF-EGFR interaction (Homo sapiens, UniProt P00533); assay: EGF-EGFR AlphaLISA assay; assay type: binding; conditions: in vitro AlphaLISA; for inhibition of the EGF/EGFR interaction: 0.01-200 μM
T2 construct: purchased Perkin-Elmer
T2 sequence (P00533 25-645 limits assumed): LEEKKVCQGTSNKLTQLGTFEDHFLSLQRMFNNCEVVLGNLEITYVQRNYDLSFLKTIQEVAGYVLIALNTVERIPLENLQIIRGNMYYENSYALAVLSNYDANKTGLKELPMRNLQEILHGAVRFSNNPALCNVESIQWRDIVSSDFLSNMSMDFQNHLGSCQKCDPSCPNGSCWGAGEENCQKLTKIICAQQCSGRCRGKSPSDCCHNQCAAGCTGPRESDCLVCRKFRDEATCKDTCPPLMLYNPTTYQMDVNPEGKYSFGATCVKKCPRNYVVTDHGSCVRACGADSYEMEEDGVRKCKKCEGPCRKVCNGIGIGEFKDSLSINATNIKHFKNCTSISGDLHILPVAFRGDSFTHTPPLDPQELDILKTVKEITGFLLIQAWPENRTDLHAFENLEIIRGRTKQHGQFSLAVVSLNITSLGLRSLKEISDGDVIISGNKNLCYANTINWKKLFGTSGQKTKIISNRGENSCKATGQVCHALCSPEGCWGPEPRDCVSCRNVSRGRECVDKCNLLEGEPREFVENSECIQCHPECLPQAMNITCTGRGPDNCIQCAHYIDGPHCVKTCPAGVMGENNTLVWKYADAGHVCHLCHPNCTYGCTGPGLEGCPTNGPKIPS
Method: FIG. 2. […] Representation of the molecules are as described in FIG. 1.
The AlphaLISA EGF/EGFR binding kit (Perkin-Elmer) was used as per the manufacturer's instructions. […] Finally, 5 μL of EGFR acceptor beads were added, and fluorescence imaged on a plate reader.

[3] = system: EGFR, Rab5 and hGIIA localisation; assay: Live cell imaging of EGFR, Rab5 and hGIIA localisation in PC-3 cells; assay type: cell-based; conditions: PC-3, Lapatinib 5 μM, control for EGFR inhibition
Method: (e) PC-3 cells co-transfected with Rab5-mCherry (red), EGFR-GFP (green) and treated with hGIIA/AF647 (purple) as well as c2 at 1 μM and 10 μM for 24 hours. EGF (25 ng/mL) and Lapatinib (5 μM) were used as control treatments. N=3, >5 cells per replicate.
The effect of c2 on EGFR, Rab5 and hGIIA localisation was also examined in PC-3 cells. PC-3 cells were co-transfected with EGFR-EGFP and Rab5-mCherry before treatment with hGIIA/AF647 and c2 at 0, 1 and 10 μM.

EGFR [4] = molecular target: T1, EGFR; assay: Live cell imaging, EGFR-EGFP and lysotracker in PC-3 cells; assay type: cell-based; conditions: PC-3, EGFR-EGFP and lysotracker, 100 μM, 24 hours
Method: as §1
PC-3 cells were seeded in a 24 well glass-bottom plate at 50 000 cells/well and incubated overnight at 37° C. and 5% CO2. Complete media was removed, wells washed with 500 μL of warm PBS for 1 min then removed and 500 μL serum free medium was added and left to incubate for one hour at 37° C. and 5% CO2. Cells were co-transfected with plasmids encoding fusion protein EGFR-EGFP (Addgene plasmid #32751, a gift from Alexander Sorkin) using Lipofectamine 3000 (Thermo Fisher Scientific) as per the manufacturer's instructions. Cells were incubated for 48 hours at 37° C. and 5% CO2, after which transfection efficiency was determined through observation of EGFP and signal with a confocal microscope LSM 800 (Zeiss). LysoTracker far red (Thermo Fisher Scientific) was incubated at 1 μM for 37° C. and 5% CO2. Cells were washed three times with PBS and serum free media was added to cells, Either DMSO (0.5%) or D3 (100 μM) were added overnight at 37° C. and 5% CO2 before imaging on the confocal microscope LSM 800 (Zeiss).

H1975 = conditions: H1975, EGFR- L858R/T790M, cited from earlier work
H3255 = conditions: H3255, EGFR - L858R, cited from earlier work
SW48 and SW48G12V = assay: Combination cell viability in isogenic CRC cell lines; assay type: cell-based; conditions: D1 0.001-100 μM with cetuximab 0.02-30 μg/mL, 72 hours
[5] = system: CRC and NSCLC cancer cell lines; assay: Proliferation assays in CRC and NSCLC cancer cell lines
pERK = pERK immunofluorescence in A549 cells after EGF stimulation; assay type: cell-based; conditions: A549, 100 μM for 16 hours, then EGF 10 ng/mL
Method: FIG. 6: A549 cells were treated with DMSO or D1-D3 (10-100 μM) for 16 hours before incubation with EGF (10 ng/mL) for 30 minutes, before cells were fixed and stained for pERK (green). Scale bars 20 μm, n=3, >20 cells per replicate.
To examine whether LYTAPs can inhibit EGFR downstream signalling, A549 cells were pre-incubated with 10-100 μM of D1-D3 for 16 hours, before stimulation with EGF (10 ng/mL) for […]. Cells were then fixed and immunofluorescently stained for pERK.

[6] = system: NSCLC cell lines H3255 and H1975; assay: Combination cell viability in NSCLC cell lines; assay type: cell-based; conditions: H3255 and H1975, 72 hours
[7] = read-out: Resistance (value in brackets)

| SMILES | recovery of EGFR levels (EGFR [1]) | lysotracker signal of endocytosed EGFR speckles (EGFR [2]; 1 μM) | EGFR signal (EGFR [2]; 1 μM, vs DMSO) | lysotracker signal (EGFR [2]; 100 μM) | potency order in inhibiting the EGF/EGFR interaction (EGF-EGFR interaction) | inhibition of the EGF/EGFR interaction (EGF-EGFR interaction) | lysotracker signal of endocytosed EGFR speckles (EGFR [2]; 100 μM) | further results |
| --- | --- | --- | --- | --- | --- | --- | --- | --- |
| CC(C)C[C@@H]1NC(=O)[C@@H](Cc2ccccc2)NC(=O)[C@H](CCCNC(=N)N)NC(=O)[C@H](Cc2ccc3ccccc3c2)NC(=O)[C@H](CO)NC1=O [Compound D2, cyclo[(D-Phe)-Leu-Ser-(L-2Nal)-Arg]] (cyclo([2Nal]R[dF]LS)) | returned to normal by 24 and 48 hours | significantly increased lysotracker signal | significant reduction in EGFR signal | increased lysotracker signal | FLM-c2>D1>D2>D3 | inhibited the EGF/EGFR interaction at high concentrations |  |  |
| CS(=O)(=O)CCNCc1ccc(-c2ccc3ncnc(Nc4ccc(OCc5cccc(F)c5)c(Cl)c4)c3c2)o1 [Lapatinib] |  |  |  |  |  |  |  | effect on EGFR, Rab5 and hGIIA localisation [3]: altering the localisation of hGIIA and Rab5 to become less punctate and more cytosolic |
| CC(C)C[C@@H]1NC(=O)[C@@H](Cc2ccccc2)NC(=O)[C@H](CCCNC(=N)N)NC(=O)[C@H](Cc2ccccc2)NC(=O)[C@H](CO)NC1=O [Compound D3, cyclo[(D-Phe)-Leu-Ser-(L-Phe)-Arg)]] (cyclo(FR[dF]LS)) |  |  | significant reduction in EGFR signal |  | FLM-c2>D1>D2>D3 | inhibited the EGF/EGFR interaction at high concentrations | significantly increased lysotracker signal | colocalization of EGFR with lysosomes (EGFR [4]): confirmed colocalization of EGFR with lysosomes |
| C#Cc1cccc(Nc2ncnc3cc(OCCOC)c(OCCOC)cc23)c1 [erlotinib] |  |  |  |  |  |  |  | Resistance (H1975): Erlotinib resistant; IC50 (H1975; [7]): 4300 nM; Resistance (H3255): Erlotinib sensitive; IC50 (H3255; [7]): 40 nM |
| CC(C)C[C@@H]1NC(=O)[C@@H](Cc2cccc3ccccc23)NC(=O)[C@H](CCCNC(=N)N)NC(=O)[C@H](Cc2ccc3ccccc3c2)NC(=O)[C@H](CO)NC1=O [Compound D1, cyclo[(D-1Nal)-Leu-Ser-(L-2Nal)-Arg]] (cyclo([2Nal]R[d1Nal]LS)) | returned to normal by 24 and 48 hours | significantly increased lysotracker signal | significant reduction in EGFR signal | increased lysotracker signal | FLM-c2>D1>D2>D3 | inhibited the EGF/EGFR interaction at high concentrations | significantly increased lysotracker signal | fraction of membrane-localised EGFR signal (EGFR [2]; 100 μM, vs DMSO): significantly reduced; synergy with cetuximab (SW48 and SW48G12V): significant synergy; IC50 compared with c2, D2 and D3 ([5]; H3255, HCC827, H1975, HCT116, SW48, SW48G12V, HT29, RKO, 0.01-300 μM, 72 hours): lowest IC50 in all cell lines; efficacy in NSCLC cell lines sensitive and resistant to erlotinib ([5]; HCC827, H1975 and H3255): retained efficacy; efficacy in cetuximab sensitive and resistant cell lines ([5]; SW48 vs SW48G12V, HT29, HCT116 and RKO): comparable efficacy; pERK signal, comparison among LYTAPs (pERK): largest effect; synergy with cetuximab [6]: potent synergy; synergy with cetuximab, U0126 and chloroquine [6]: exhibited synergy with all three |
